# Reference: patent US20230048576A1, “COMPOUNDS FOR THE TREATMENT OF NEUROPATHIC PAIN” (City of Hope, priority 2019, published 2023)
# Experiment: Mean group body weight in Taxol model
# Format: in vivo, rat
# Method: Neuropathic pain was induced by intraperitoneal administration of Taxol at a dose level of 6 mg/kg on study days 0-6 and 12 mg/kg on study days 7-12. Following injection of Taxol animals experienced pain as was assessed using the von Frey test. The development of neuropathic pain was confirmed by measuring mechanical allodynia (Von Frey test) on study day 13 (for inclusion) and on study day 14 (1 hour and 2 hour post dosing) and 24 hour post first dosing.
# [1] = 100 mg/kg PO, Group 4, Baseline
structure (smiles),measurement,setting,value
"CC(C)(Oc1ccc(NC(=O)Nc2ccc(Cc3ccc(NC(=O)Nc4ccc(OC(C)(C)C(=O)O)cc4)c(Cl)c3)cc2Cl)cc1)C(=O)O [LR-90, methylene bis[4,4′-(2-chlorophenylureidophenoxyisobutyric acid)]]",Mean group body weight,"25 mg/kg PO, Group 6, Baseline",223.50 g
same,Mean group body weight (% from baseline),"25 mg/kg PO, Group 6, Baseline",100.00%
same,Mean group body weight,"25 mg/kg PO, Group 6, Day 1",235.00 g
same,Mean group body weight (% from baseline),"25 mg/kg PO, Group 6, Day 1",105.16%
same,Mean group body weight,"25 mg/kg PO, Group 6, Day 3",237.50 g
same,Mean group body weight (% from baseline),"25 mg/kg PO, Group 6, Day 3",106.26%
same,Mean group body weight,"25 mg/kg PO, Group 6, Day 5",255.50 g
same,Mean group body weight (% from baseline),"25 mg/kg PO, Group 6, Day 5",114.32%
same,Mean group body weight,"25 mg/kg PO, Group 6, Day 7",264.30 g
same,Mean group body weight (% from baseline),"25 mg/kg PO, Group 6, Day 7",118.31%
same,Mean group body weight,"25 mg/kg PO, Group 6, Day 9",275.88 g
same,Mean group body weight (% from baseline),"25 mg/kg PO, Group 6, Day 9",123.38%
same,Mean group body weight,"25 mg/kg PO, Group 6, Day 11",282.38 g
same,Mean group body weight (% from baseline),"25 mg/kg PO, Group 6, Day 11",126.30%
same,Mean group body weight,"25 mg/kg PO, Group 6, Day 13",286.75 g
same,Mean group body weight (% from baseline),"25 mg/kg PO, Group 6, Day 13",128.26%
same,Mean group body weight,"25 mg/kg PO, Group 6, Day 16",277.50 g
same,Mean group body weight (% from baseline),"25 mg/kg PO, Group 6, Day 16",124.11%
same,Mean group body weight,"25 mg/kg PO, Group 6, Day 20",277.63 g
same,Mean group body weight (% from baseline),"25 mg/kg PO, Group 6, Day 20",124.18%
same,Mean group body weight,"25 mg/kg PO, Group 6, Day 23",263.63 g
same,Mean group body weight (% from baseline),"25 mg/kg PO, Group 6, Day 23",117.84%
same,Mean group body weight,"25 mg/kg PO, Group 6, Day 26",239.00 g
same,Mean group body weight (% from baseline),"25 mg/kg PO, Group 6, Day 26",108.59%
same,Mean group body weight,"50 mg/kg PO, Group 5, Baseline",225.88 g
same,Mean group body weight (% from baseline),"50 mg/kg PO, Group 5, Baseline",100.00%
same,Mean group body weight,"50 mg/kg PO, Group 5, Day 1",234.38 g
same,Mean group body weight (% from baseline),"50 mg/kg PO, Group 5, Day 1",103.80%
same,Mean group body weight,"50 mg/kg PO, Group 5, Day 3",241.63 g
same,Mean group body weight (% from baseline),"50 mg/kg PO, Group 5, Day 3",106.95%
same,Mean group body weight,"50 mg/kg PO, Group 5, Day 5",257.50 g
same,Mean group body weight (% from baseline),"50 mg/kg PO, Group 5, Day 5",113.97%
same,Mean group body weight,"50 mg/kg PO, Group 5, Day 7",268.63 g
same,Mean group body weight (% from baseline),"50 mg/kg PO, Group 5, Day 7",118.88%
same,Mean group body weight,"50 mg/kg PO, Group 5, Day 9",278.38 g
same,Mean group body weight (% from baseline),"50 mg/kg PO, Group 5, Day 9",123.18%
same,Mean group body weight,"50 mg/kg PO, Group 5, Day 11",286.13 g
same,Mean group body weight (% from baseline),"50 mg/kg PO, Group 5, Day 11",126.60%
same,Mean group body weight,"50 mg/kg PO, Group 5, Day 13",291.38 g
same,Mean group body weight (% from baseline),"50 mg/kg PO, Group 5, Day 13",128.91%
same,Mean group body weight,"50 mg/kg PO, Group 5, Day 16",280.13 g
same,Mean group body weight (% from baseline),"50 mg/kg PO, Group 5, Day 16",123.98%
same,Mean group body weight,"50 mg/kg PO, Group 5, Day 20",273.75 g
same,Mean group body weight (% from baseline),"50 mg/kg PO, Group 5, Day 20",121.18%
same,Mean group body weight,"50 mg/kg PO, Group 5, Day 23",264.29 g
same,Mean group body weight (% from baseline),"50 mg/kg PO, Group 5, Day 23",116.09%
same,Mean group body weight,"50 mg/kg PO, Group 5, Day 26",266.67 g
same,Mean group body weight (% from baseline),"50 mg/kg PO, Group 5, Day 26",117.29%
same,Mean group body weight,[1],222.63 g
same,Mean group body weight (% from baseline),[1],100.00%
same,Mean group body weight,"100 mg/kg PO, Group 4, Day 1",235.50 g
same,Mean group body weight (% from baseline),"100 mg/kg PO, Group 4, Day 1",105.77%
same,Mean group body weight,"100 mg/kg PO, Group 4, Day 3",237.63 g
same,Mean group body weight (% from baseline),"100 mg/kg PO, Group 4, Day 3",106.74%
same,Mean group body weight,"100 mg/kg PO, Group 4, Day 5",257.25 g
same,Mean group body weight (% from baseline),"100 mg/kg PO, Group 4, Day 5",115.56%
same,Mean group body weight,"100 mg/kg PO, Group 4, Day 7",267.25 g
same,Mean group body weight (% from baseline),"100 mg/kg PO, Group 4, Day 7",120.04%
same,Mean group body weight,"100 mg/kg PO, Group 4, Day 9",276.50 g
same,Mean group body weight (% from baseline),"100 mg/kg PO, Group 4, Day 9",124.20%
same,Mean group body weight,"100 mg/kg PO, Group 4, Day 11",285.00 g
same,Mean group body weight (% from baseline),"100 mg/kg PO, Group 4, Day 11",128.01%
same,Mean group body weight,"100 mg/kg PO, Group 4, Day 13",288.75 g
same,Mean group body weight (% from baseline),"100 mg/kg PO, Group 4, Day 13",129.71%
same,Mean group body weight,"100 mg/kg PO, Group 4, Day 16",284.75 g
same,Mean group body weight (% from baseline),"100 mg/kg PO, Group 4, Day 16",127.91%
same,Mean group body weight,"100 mg/kg PO, Group 4, Day 20",266.63 g
same,Mean group body weight (% from baseline),"100 mg/kg PO, Group 4, Day 20",119.75%
same,Mean group body weight,"100 mg/kg PO, Group 4, Day 23",249.00 g
same,Mean group body weight (% from baseline),"100 mg/kg PO, Group 4, Day 23",111.34%
same,Mean group body weight,"100 mg/kg PO, Group 4, Day 26",234.00 g
same,Mean group body weight (% from baseline),"100 mg/kg PO, Group 4, Day 26",106.04%
